Measured values: paper PMC8284444, “Two β-Lactamase Variants with Reduced Clavulanic Acid Inhibition Display Different Millisecond Dynamics” (Antimicrobial Agents and Chemotherapy, 2021)

Key:
Type in all cases: biochemical
[1] = target: T1, BlaC (β-lactamase of Mycobacterium tuberculosis) (Mycobacterium tuberculosis, UniProt P9WKD3, G144N)
[2] = target: BlaC (β-lactamase of Mycobacterium tuberculosis) (Mycobacterium tuberculosis, UniProt P9WKD3, R229S)
[3] = target: BlaC (β-lactamase of Mycobacterium tuberculosis) (Mycobacterium tuberculosis, UniProt P9WKD3, K250R)
[4] = target: T1, BlaC (β-lactamase of Mycobacterium tuberculosis); remark: listed apart in the source

Q: `O=C(O)[C@H]1/C(=C/CO)O[C@@H]2CC(=O)N21` [clavulanic acid] was tested. Which “nitrocefin hydrolysis progress curves with 10 μM clavulanic acid (reduced inhibi)” value [1] did it give?
A: The G132N and K234R mutations convey resistance to inhibition, maintaining some level of activity even after prolonged exposure.

Q: And the “nitrocefin hydrolysis progress curves with 10 μM clavulanic acid” value [2]?
A: The R213S mutant was found to require more time than wt BlaC to reach full inhibition.

Q: And the “nitrocefin hydrolysis progress curves with 10 μM clavulanic acid (reduced inhibi)” value [3]?
A: The G132N and K234R mutations convey resistance to inhibition, maintaining some level of activity even after prolonged exposure.

Q: How did the “nitrocefin hydrolysis by purified enzyme” value [4] turn out when `O=C(Cc1cccs1)N[C@@H]1C(=O)N2C(C(=O)O)=C(/C=C/c3ccc([N+](=O)[O-])cc3[N+](=O)[O-])CS[C@H]12` [nitrocefin] was run?
A: is plotted for wild-type (WT) BlaC and single-amino-acid mutants
